pIC50: −log10 of the molar value. Activity calls are given as the source filed them. The rule behind the calls is not given here.
What was measured:
[1] = MRT(0 to infinity) in BALB/c mouse at 5 mg/kg, po measured upto 24 hrs by LC-MS/MS analysis; assay type: ADME, organism-based; settings: in vivo
[2] = Half life in BALB/c mouse at 5 mg/kg, po measured upto 24 hrs by LC-MS/MS analysis; assay type: ADME, organism-based; settings: in vivo
[3] = Toxicity in BALB/c mouse assessed as effect on LDH level in serum at 60 to 100 mg/kg, po measured after 14 days; assay type: organism-based; settings: in vivo, 336 h, dose 60-100 mg/kg, time 14 day
[4] = biological target: T1, Coagulation factor XII (Homo sapiens) (UniProt P00748); assay: Inhibition of FXIIa (unknown origin) using H-D-Pro-Phe-Arg-pNA as substrate preincubated for 20 mins followed by 100 fold dilution upto 120 mins then substrate addition for 60 mins by jump dilution assay; settings: time <= 200.0 min
T1 sequence (whole entry): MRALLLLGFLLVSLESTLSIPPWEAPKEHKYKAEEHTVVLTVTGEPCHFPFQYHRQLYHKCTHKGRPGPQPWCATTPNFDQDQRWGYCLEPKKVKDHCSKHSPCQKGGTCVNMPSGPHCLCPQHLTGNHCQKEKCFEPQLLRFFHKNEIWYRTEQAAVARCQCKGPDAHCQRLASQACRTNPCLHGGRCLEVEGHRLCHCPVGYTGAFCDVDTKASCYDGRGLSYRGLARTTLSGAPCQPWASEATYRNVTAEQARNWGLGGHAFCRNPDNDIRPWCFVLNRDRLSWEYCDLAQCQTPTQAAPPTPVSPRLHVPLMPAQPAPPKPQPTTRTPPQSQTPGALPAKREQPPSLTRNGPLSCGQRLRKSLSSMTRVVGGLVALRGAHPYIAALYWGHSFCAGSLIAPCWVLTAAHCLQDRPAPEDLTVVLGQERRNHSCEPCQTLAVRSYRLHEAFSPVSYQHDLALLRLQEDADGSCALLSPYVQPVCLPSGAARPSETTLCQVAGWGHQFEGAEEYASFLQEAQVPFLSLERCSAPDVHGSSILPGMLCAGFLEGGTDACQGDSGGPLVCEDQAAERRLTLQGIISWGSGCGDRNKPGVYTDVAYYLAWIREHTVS

Mus musculus [5] = assay: Antiinflammatory activity in carrageenan-induced thrombosis in male BALB/c mouse model assessed as reduction in IL-6 level at 10 to 30 mg/kg, po by ELISA method; assay type: functional, organism-based; settings: dose 10-30 mg/kg
Coagulation factor XII = biological target: T2, Coagulation factor XII (Homo sapiens, UniProt P00748); assay: Inhibition of FXIIa (unknown origin) using H-D-Pro-Phe-Arg-pNA as substrate incubated for 20 mins followed by substrate addition by spectrophotometric analysis
T2 sequence (P00748 whole entry): T1 sequence (whole entry)

Mus musculus [6] = assay: Antiinflammatory activity in carrageenan-induced thrombosis in male BALB/c mouse model assessed as reduction in IL-6 level administered as oral dose by ELISA method; assay type: functional, organism-based; settings: dose 10-30 mg/kg

| SMILES | MRT inf [1] [h] | half-life [2] [h] | Activity [3] | inhibition [4] | Activity (Mus musculus [5]) | pIC50 (Coagulation factor XII) | Activity (Mus musculus [6]) |
| --- | --- | --- | --- | --- | --- | --- | --- |
| CC(C)N1CCCN(c2ccc(C(=O)n3nc(-c4ccccn4)nc3N)c3ccccc23)CC1 | 1.6 | 1.71 | Non-Toxic | inactive | Active |  |  |
| CC(C)N1CCN(c2ccc(C(=O)n3nc(-c4ccccn4)nc3N)c3ccccc23)CC1 |  |  |  |  |  | 7.43 | Dose-Dependent Effect |

— ChEMBL document CHEMBL5500412, “Discovery of Highly Selective, Potent, Covalent, and Orally Bioavailable Factor XIIa Inhibitors for the Treatment of Thrombo-Inflammation” (J Med Chem, 2024)
